# According to patent US20230120564A1, “PYRIDO[3,4-D]PYRIMIDINE DERIVATIVE AND THERAPEUTIC PHARMACEUTIC COMPOSITION COMPRISING SAME” (KOREA INSTITUTE OF SCIENCE AND TECHNOLOGY, priority 2020, published 2023):
# Experiments:
# [1] = biological target: BLK (Homo sapiens, UniProt P51451); assay: full kinase panel biochemical assay; settings: single concentration of 1 μM; read-out: percent inhibition of BLK
# Method in brief: (§1)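 Values are % inhibition measured in a biochemical full kinase panel. Compound was tested at one concentration only, 1 μM, and residual activity (%) was derived per kinase.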
# [2] = biological target: FYN (Homo sapiens, UniProt P06241); assay: full kinase panel biochemical assay; settings: single concentration of 1 μM; read-out: percent inhibition of FYN
# Method in brief: as §1
# [3] = biological target: FLT1/VEGFR1 (Homo sapiens, UniProt P17948); assay: full kinase panel biochemical assay; settings: single concentration of 1 μM; read-out: percent inhibition of FLT1/VEGFR1
# Method in brief: as §1
# [4] = biological target: ARAF (Homo sapiens, UniProt P10398); assay: full kinase panel biochemical assay; settings: single concentration of 1 μM; read-out: percent inhibition of ARAF
# ARAF, sequence (P10398 whole entry): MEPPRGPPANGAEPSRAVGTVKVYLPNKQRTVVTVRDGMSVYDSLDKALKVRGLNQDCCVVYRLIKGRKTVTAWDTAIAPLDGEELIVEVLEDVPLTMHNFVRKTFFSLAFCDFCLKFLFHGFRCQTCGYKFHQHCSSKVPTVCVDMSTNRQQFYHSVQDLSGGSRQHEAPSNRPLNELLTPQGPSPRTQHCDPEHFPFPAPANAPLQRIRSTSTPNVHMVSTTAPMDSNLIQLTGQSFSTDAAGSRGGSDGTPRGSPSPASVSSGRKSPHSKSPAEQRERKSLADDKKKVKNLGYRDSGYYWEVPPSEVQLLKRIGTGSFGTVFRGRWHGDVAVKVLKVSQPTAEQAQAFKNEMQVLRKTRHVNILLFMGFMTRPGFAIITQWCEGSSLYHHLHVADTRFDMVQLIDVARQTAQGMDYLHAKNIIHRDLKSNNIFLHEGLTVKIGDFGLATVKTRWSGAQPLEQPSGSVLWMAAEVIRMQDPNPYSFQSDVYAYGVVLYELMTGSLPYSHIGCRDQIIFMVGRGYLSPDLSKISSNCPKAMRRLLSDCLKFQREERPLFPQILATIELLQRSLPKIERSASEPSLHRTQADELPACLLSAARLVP
# Method in brief: as §1
# [5] = biological target: FGR (Homo sapiens, UniProt P09769); assay: full kinase panel biochemical assay; settings: single concentration of 1 μM; read-out: percent inhibition of FGR
# FGR, sequence (P09769 whole entry): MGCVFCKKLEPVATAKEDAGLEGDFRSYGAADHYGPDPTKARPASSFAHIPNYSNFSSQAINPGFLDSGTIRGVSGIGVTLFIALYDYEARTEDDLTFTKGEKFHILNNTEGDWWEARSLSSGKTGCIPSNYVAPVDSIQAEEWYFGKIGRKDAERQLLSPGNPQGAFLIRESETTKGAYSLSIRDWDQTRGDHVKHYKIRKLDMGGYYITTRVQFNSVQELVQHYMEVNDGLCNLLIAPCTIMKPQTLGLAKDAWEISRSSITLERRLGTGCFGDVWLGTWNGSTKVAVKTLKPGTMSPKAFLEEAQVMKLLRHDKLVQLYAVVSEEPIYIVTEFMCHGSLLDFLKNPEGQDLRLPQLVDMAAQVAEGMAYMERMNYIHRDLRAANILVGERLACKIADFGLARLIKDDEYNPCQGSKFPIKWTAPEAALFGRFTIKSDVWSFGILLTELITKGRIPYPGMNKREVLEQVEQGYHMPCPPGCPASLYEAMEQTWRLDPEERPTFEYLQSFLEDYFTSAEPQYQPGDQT
# Method in brief: as §1
# [6] = biological target: FMS (Homo sapiens, UniProt P07333); assay: full kinase panel biochemical assay; settings: single concentration of 1 μM; read-out: percent inhibition of FMS
# Method in brief: as §1
# [7] = biological target: ZAK/MLTK (Homo sapiens, UniProt Q9NYL2); assay: full kinase panel biochemical assay; settings: single concentration of 1 μM; read-out: percent inhibition of ZAK/MLTK
# ZAK/MLTK, sequence (Q9NYL2 whole entry): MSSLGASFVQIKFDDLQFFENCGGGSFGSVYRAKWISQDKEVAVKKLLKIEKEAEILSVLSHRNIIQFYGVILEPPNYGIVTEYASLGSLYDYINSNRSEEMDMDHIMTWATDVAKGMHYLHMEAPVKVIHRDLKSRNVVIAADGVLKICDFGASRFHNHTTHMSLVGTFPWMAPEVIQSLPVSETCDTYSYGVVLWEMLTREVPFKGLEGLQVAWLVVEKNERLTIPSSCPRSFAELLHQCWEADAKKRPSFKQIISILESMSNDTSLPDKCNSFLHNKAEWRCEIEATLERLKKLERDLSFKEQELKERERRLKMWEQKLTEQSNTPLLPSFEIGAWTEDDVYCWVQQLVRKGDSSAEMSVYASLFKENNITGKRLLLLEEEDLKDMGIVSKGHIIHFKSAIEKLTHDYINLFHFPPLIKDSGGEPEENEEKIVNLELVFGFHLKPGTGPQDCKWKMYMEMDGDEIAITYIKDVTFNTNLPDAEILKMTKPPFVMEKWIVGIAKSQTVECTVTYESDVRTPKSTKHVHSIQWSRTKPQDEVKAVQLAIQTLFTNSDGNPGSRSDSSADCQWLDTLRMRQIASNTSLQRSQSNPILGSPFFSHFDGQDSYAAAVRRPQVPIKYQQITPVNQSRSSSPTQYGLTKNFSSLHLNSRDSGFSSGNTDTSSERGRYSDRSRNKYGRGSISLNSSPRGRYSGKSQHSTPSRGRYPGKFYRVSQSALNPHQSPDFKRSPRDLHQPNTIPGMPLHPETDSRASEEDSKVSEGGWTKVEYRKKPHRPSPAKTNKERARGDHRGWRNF
# Method in brief: as §1
# [8] = biological target: FGFR2 (Homo sapiens, UniProt P21802); assay: full kinase panel biochemical assay; settings: single concentration of 1 μM; read-out: percent inhibition of FGFR2
# Method in brief: as §1
# [9] = biological target: FGFR1 (Homo sapiens, UniProt P11362); assay: full kinase panel biochemical assay; settings: single concentration of 1 μM; read-out: percent inhibition of FGFR1
# FGFR1, sequence (P11362 22-822): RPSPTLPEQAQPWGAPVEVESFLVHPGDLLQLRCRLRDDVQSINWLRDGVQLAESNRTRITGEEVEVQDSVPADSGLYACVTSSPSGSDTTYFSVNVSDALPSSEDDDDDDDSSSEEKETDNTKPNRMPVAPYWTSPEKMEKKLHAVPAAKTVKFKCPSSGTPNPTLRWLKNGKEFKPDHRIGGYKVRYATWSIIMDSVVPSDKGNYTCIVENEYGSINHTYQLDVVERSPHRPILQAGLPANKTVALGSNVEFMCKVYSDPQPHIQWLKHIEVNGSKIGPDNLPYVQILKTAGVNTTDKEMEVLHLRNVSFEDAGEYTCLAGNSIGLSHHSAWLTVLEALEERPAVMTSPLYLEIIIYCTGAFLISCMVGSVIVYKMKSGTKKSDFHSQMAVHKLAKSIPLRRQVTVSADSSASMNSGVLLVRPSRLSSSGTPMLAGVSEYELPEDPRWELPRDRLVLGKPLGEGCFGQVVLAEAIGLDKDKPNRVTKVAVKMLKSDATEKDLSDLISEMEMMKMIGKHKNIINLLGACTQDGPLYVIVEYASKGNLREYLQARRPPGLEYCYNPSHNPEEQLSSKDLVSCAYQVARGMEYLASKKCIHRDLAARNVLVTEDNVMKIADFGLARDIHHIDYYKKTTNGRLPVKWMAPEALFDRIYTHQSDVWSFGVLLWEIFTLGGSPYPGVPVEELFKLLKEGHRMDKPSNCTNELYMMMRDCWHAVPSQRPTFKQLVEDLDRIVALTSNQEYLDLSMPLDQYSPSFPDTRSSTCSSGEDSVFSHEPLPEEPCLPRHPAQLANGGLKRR
# Method in brief: as §1
# [10] = biological target: c-Src (Homo sapiens, UniProt P12931); assay: full kinase panel biochemical assay; settings: single concentration of 1 μM; read-out: percent inhibition of c-Src
# c-Src, sequence (P12931 whole entry): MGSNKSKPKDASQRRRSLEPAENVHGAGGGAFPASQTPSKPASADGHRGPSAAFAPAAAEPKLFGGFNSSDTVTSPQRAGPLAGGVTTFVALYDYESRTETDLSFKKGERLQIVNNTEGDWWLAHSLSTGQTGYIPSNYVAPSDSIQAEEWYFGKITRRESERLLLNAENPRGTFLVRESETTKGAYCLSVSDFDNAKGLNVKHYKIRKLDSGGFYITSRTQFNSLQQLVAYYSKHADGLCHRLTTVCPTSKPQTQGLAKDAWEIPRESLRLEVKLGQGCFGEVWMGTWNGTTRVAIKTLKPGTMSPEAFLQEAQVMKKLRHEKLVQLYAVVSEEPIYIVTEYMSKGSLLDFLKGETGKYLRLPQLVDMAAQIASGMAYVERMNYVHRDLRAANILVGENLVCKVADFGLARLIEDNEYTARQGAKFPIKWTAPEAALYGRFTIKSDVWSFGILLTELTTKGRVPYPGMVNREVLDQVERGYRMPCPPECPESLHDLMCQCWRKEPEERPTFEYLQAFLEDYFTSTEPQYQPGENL
# Method in brief: as §1
# [11] = biological target: TYK2 (Homo sapiens, UniProt P29597); assay: full kinase panel biochemical assay; settings: single concentration of 1 μM; read-out: percent inhibition of TYK2
# TYK2, sequence (P29597 whole entry): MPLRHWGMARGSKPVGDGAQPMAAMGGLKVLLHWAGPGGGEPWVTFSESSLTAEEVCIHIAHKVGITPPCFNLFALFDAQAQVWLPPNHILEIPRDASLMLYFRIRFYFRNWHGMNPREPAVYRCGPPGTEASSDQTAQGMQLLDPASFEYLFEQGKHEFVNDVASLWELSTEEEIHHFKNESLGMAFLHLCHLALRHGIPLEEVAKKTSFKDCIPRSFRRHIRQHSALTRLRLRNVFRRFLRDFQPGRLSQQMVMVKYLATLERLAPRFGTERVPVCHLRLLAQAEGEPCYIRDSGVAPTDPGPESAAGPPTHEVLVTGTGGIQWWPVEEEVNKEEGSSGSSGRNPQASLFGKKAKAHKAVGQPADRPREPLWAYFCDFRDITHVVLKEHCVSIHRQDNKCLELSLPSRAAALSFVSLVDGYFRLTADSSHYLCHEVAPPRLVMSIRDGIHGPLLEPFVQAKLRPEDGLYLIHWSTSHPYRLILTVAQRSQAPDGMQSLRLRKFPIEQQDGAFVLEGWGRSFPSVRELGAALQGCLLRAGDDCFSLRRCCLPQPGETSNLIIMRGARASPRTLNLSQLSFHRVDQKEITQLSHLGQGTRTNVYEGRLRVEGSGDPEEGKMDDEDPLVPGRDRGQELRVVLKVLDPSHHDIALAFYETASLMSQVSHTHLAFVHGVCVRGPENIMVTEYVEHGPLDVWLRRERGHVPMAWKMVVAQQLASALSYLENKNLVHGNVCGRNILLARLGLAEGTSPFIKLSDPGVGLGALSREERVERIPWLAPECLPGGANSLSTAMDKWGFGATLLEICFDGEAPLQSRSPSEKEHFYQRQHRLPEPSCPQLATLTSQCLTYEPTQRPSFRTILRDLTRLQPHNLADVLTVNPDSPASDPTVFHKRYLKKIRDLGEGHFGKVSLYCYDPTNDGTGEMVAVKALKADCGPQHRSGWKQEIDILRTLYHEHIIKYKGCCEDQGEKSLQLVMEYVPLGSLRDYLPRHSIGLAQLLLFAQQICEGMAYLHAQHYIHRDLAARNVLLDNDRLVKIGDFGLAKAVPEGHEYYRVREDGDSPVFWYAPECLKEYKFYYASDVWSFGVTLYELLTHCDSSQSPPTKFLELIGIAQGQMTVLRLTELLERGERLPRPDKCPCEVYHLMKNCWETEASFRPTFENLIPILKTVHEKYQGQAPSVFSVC
# Method in brief: as §1
# [12] = biological target: EPHA8 (Homo sapiens, UniProt P29322); assay: full kinase panel biochemical assay; settings: single concentration of 1 μM; read-out: percent inhibition of EPHA8
# Method in brief: as §1
# [13] = system: Ba/F3 (parental); assay: Inhibition of cell proliferation (GI50); format: cell-based; settings: Mus musculus, BaF3; Ba/F3 (parental) cell line; read-out: Proliferation inhibitory activity (GI50, μM) Ba/F3 (parental)
# Procedure: The inhibitory activities of the compounds of the present invention against the proliferation of the Ba/F3 (parental) cell line were measured and the GI50 values thereof were calculated.
# BLK, sequence (P51451 whole entry): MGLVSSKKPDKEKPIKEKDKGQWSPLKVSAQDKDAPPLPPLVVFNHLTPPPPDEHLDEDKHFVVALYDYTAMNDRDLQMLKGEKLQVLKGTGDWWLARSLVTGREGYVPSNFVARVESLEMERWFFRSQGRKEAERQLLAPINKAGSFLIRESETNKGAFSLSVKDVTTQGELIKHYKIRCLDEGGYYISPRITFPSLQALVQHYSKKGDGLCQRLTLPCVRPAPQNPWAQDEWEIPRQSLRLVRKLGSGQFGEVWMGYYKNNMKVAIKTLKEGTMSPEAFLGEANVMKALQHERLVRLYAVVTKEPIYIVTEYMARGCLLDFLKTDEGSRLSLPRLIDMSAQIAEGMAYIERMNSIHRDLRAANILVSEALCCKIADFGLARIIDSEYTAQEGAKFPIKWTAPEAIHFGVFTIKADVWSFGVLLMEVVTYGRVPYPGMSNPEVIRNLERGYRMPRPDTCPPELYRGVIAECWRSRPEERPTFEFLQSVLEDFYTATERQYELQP
smiles,measurement,setting,value
"Cc1ccc(Nc2ncc3cc(-c4cc(NC(=O)c5cccc(C(F)(F)F)c5)ccc4C)ncc3n2)cn1 [Compound No. 4, N-(4-methyl-3-(2-((6-methylpyridin-3-yl)amino)pyrido[3,4-d]pyrimidin-6-yl)phenyl)-3-(trifluoromethyl)benzamide]",inhibition at 1 µM,[1],≥ 70%
same,inhibition at 1 µM,[2],≥ 70%
same,inhibition at 1 µM,[3],≥ 70%
same,inhibition at 1 µM,[4],≥ 70%
same,inhibition at 1 µM,[5],≥ 70%
same,inhibition at 1 µM,[6],≥ 70%
same,inhibition at 1 µM,[7],≥ 70%
same,inhibition at 1 µM,[8],≥ 70%
same,inhibition at 1 µM,[9],≥ 70%
same,inhibition at 1 µM,[10],≥ 70%
same,inhibition at 1 µM,[11],≥ 70%
same,inhibition at 1 µM,[12],≥ 70%
same,GI50,[13],< 0.5 µM
